Laboratory results taken from patent US20210077478A1, “METHOD OF COUNTERING RESPIRATORY DEPRESSION VIA ACTIVATION OF NEURONAL HETEROMERIC NICOTINIC ACETYLCHOLINE RECEPTORS” (THE GOVERNORS OF THE UNIVERSITY OF ALBERTA, priority 2017, published 2021).
“Also recorded” adds a separate entry of the source. Read-outs that look alike come from different tables or passages of the source.

Experiments:
[1] = test system: brainstem-spinal cord in vitro preparations; experiment: Brainstem-spinal cord in vitro preparation, respiratory rhythm (C4 / XII nerve recordings); design: species or system rat; conditions: for fR in the presence of the antagonist: antagonist 400 nM
Description: Brainstem-spinal cord and medullary slice preparations were obtained from neonatal Sprague-Dawley rats. The rats were anesthetized with metofane, decerebrated, and the brainstem-spinal cord (BSSC) and medullary slice dissected (Smith et al., 1990; 1991). BSSC was continuously perfused with modified Krebs solution. A single rhythmic medullary slice was cut (500-650 μm thick) and continuously perfused with bathing solution. Inspiratory activity was recorded from the fourth ventral cervical nerve roots of BSSC or XII nerve rootlets of the medullary slice using an extracellular glass electrode.
Neonatal (postnatal day 1-3) rats were anesthetized with metofane, decerebrated and the brainstem-spinal cord dissected as previously reported. The neuraxis was continuously perfused at 27°±1° C. (5 ml/min; chamber volume, 3 ml) with modified Kreb's solution that contained 128 mM NaCl, 3.0 mM KCl, 1.5 mM CaCl2, 1.0 mM MgCl2, 23.5 mM NaHCO3, 0.5 mM NaH2PO4, and 30 mM d-glucose equilibrated with 95% O2-5% CO2 (pH 7.4).
A single transverse slice containing the preBötC and more caudal reticular formation regions was then cut (700 μm thick) from brainstem-spinal cord preparations perfused with a bathing solution identical to that used for B SSC preparation with the exception that the KCl concentration was increased to 9 mM to facilitate long-term generation of stable rhythm. Recordings from the fourth ventral cervical nerve roots of brainstem-spinal cord or hypoglossal nerve roots of medullary slice preparations were amplified, rectified, low-pass filtered, and recorded to a computer, using an analog-digital converter (Axon Instruments Digidata; Molecular Devices, Sunnyvale, Calif.) and data acquisition software (Axon Instruments AxoScope).

[2] = test system: medullary slice (preBötC and XII motoneurons); design: species or system rat
adult rats [3] = experiment: Baseline ventilation after drug alone, plethysmography in adult rats; type: in vivo, rat; conditions: for baseline minute ventilation: drug alone: A85380 0.03, Rivanicline 3, NS9283 10, PNU282987 1-15 mg/kg
rat pups = conditions: in vivo
(α4)2(β2)3 receptors = (α4)2(β2)3 receptors (Homo sapiens, UniProt P17787+P43681); conditions: Zwart et al., 2008; Carbone et al., 2009; cited from earlier work
(α4)3(β2)2 receptors = (α4)3(β2)2 receptors (Homo sapiens, UniProt P17787+P43681); conditions: Zwart et al., 2008; Carbone et al., 2009; cited from earlier work
adult rats [4] = conditions: rat, in vivo, iv
adult rats [5] = experiment: Formalin test (licking and lifting) in adult rats; type: in vivo, rat
newborn rats [6] = experiment: Fentanyl-induced respiratory depression in rat pups (postnatal day 3-4), plethysmography; type: in vivo
[7] = oral administration, compared with sazetidine-A (Kong et al. 2015); cited from earlier work
newborn rats [8] = experiment: Propofol-induced respiratory depression in newborn rats (P3); type: in vivo, rat
Description: In a further experiment, A85380 (0.03 mg/kg, ip) and propofol (30 mg/kg, ip) were co-administered in newborn rats in vivo (P3). In the control group, vehicle (saline) was administered with 30 mg/kg propofol (FIG. 6A). […] Without being bound by any theory, targeting of α4β2 nAChRs may be a potent means of alleviating the effects of drugs (e.g. propofol) causing respiratory depression via GABAA receptor mechanisms in vivo.

adult rats [9] = conditions: rat, in vivo, sc, 0.06 mg/kg
[10] = test system: P0 rat brainstem-spinal cord preparation with C2 hemisection; experiment: C2 hemisection spinal cord injury model, brainstem-spinal cord preparation, C4 recordings; conditions: A85380 25 nM bath
Text: One of the primary causes of morbidity and mortality associated with spinal cord injury is loss of normal functioning of the respiratory musculature. This is caused by a reduced synaptic drive from respiratory rhythm generating centers onto respiratory spinal motoneurons. An in vitro newborn brainstem spinal cord rat model of spinal cord injury (Zimmer and Goshgarian, 2005) was used to test the efficacy of targeting α4β2 nAChRs to alleviate weak respiratory drive. […] Rectified and integrated signals were made from both C4 recordings from a P0 rat brainstem-spinal cord preparation showing the respiratory activity both contralateral (A: top traces) and ipsilateral (B: bottom traces) to one side C2 hemisection. There was a marked reduction in neural activity after the hemisection in ipsilateral nerve, but respiratory-like activity was still observed occasionally and was correlated with the respiratory activity on the contralateral nerve.

(α4)3(β2)2 receptors, sequence (P43681 29-627 limits assumed): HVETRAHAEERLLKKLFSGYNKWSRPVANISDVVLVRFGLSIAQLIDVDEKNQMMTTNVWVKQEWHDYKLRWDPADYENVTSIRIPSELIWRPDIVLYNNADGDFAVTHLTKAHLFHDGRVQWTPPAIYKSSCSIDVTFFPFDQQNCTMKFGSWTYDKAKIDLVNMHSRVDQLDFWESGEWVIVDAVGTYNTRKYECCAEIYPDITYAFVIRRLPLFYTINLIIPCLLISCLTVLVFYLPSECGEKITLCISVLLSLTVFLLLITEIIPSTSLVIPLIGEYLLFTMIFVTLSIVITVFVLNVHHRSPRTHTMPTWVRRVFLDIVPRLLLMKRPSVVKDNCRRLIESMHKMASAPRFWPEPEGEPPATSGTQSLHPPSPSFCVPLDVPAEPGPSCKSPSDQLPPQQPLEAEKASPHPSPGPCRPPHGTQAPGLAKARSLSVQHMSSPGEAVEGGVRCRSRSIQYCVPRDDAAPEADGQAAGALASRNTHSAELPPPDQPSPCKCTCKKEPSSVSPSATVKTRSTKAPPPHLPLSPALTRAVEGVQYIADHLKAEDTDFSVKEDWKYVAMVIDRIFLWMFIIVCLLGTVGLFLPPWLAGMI
(α4)3(β2)2 receptors, sequence (P17787 26-502): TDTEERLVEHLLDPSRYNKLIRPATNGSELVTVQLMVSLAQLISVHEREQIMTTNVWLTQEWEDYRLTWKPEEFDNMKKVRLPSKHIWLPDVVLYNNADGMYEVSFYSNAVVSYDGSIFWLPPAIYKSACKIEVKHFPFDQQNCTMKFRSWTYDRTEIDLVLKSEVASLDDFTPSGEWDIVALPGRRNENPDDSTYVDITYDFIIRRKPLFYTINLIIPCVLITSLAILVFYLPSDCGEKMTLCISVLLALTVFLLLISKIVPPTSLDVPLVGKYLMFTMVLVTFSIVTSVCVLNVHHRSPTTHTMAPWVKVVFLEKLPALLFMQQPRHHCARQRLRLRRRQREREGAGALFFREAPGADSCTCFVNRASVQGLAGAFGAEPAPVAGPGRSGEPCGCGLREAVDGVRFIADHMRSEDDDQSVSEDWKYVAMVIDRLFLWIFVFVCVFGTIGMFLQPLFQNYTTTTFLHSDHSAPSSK
(α4)2(β2)3 receptors, sequence (P43681 29-627 limits assumed): as the sequence (P43681 29-627 limits assumed) above
(α4)2(β2)3 receptors, sequence (P17787 26-502): as the sequence (P17787 26-502) above

C[C@@H](NC(=O)[C@@H](N)Cc1ccc(O)cc1)C(=O)NCC(=O)N(C)[C@@H](Cc1ccccc1)C(=O)NCCO [DAMGO, [D-Ala2, NMe-Phe4, Gly-ol5]-enkephalin]
respiratory depression by DAMGO (fR and burst area) [1]: suppressed fR and burst area | effect of DAMGO on fR [2]: caused a suppression of fR | effect of DAMGO on respiratory frequency and amplitude [2]: induced suppression of respiratory frequency and amplitude

O=C(N[C@H]1CN2CCC1CC2)c1ccc(Cl)cc1 [PNU282987]
baseline minute ventilation (adult rats [3]): 102.9±4.1 % of control | baseline fR [1]: very modest increase in fR | baseline respiratory frequency [1]: very modest increase in respiratory frequency | baseline respiratory frequency [2]: had no effect | significant alteration of baseline VE (rat pups): Neither

CN1CCCC1c1cccnc1 (centres unmarked) [nicotine]
baseline fR [1]: caused an increase of baseline fR | concentrations at which baseline fR is increased [1]: above 200 nM | reversal of DAMGO-induced respiratory depression (decrease in fR and burst area) [1]: clear reversal | significant alteration of baseline VE (rat pups): Neither

dihydro-beta-erythroidine [DHβE]
fR in the presence of the antagonist [1]: fR was slower | reversal of A85380 (25 nM) effects by antagonist ([2]; DHβE 200 nM subsequent bath application): reversed | significant alteration of baseline VE (rat pups): Neither

OCCCCC#Cc1cncc(OC[C@@H]2CCN2)c1 [sazetidine-A, 6-[5-[(2S)-2-Azetidinylmethoxy]-3-pyridinyl]-5-hexyn-1-ol]
significant alteration of baseline VE (rat pups): Neither | agonist activity ((α4)2(β2)3 receptors): full agonist activity | agonist activity ((α4)3(β2)2 receptors): nearly no agonist activity

CN1[C@@H](CC(=O)c2ccccc2)CCC[C@H]1C[C@H](O)c1ccccc1 [lobeline, 2-((2R,6S)-6-((S)-2-Hydroxy-2-phenylethyl)-1-methylpiperidin-2-yl)-1-phenylethanone]
VE (adult rats [3]; lobeline 3 mg/kg iv alone): 116.2±8.7 % of control | VE (adult rats [3]; lobeline 6 mg/kg ip alone): did not affect VE | loss of righting reflex (adult rats [4]): 22.4 ± 7.3 min | nocifensive response, phase II (adult rats [5]; lobeline 3 mg/kg iv alone): tended to decrease the nocifensive response in the phase II, but the difference is not significant | nocifensive response, phase I (adult rats [5]; lobeline 3 mg/kg iv alone, formalin 30 min post lobeline): decreased nocifensive response

CN1CCCC1CCc1ccc(S)cc1 (racemic) [SIB 1553A, (±)-4-[2-((N-methyl)-2-pyrrolidinyl)ethyl]thiophenol]
SIB 1553A effects with DHβE co-administered (newborn rats [6]; DHβE 6 mg/kg co-administration with fentanyl, SIB 1553A 40 mg/kg): only partially blocked | fentanyl-induced respiratory depression with mecamylamine co-administered (newborn rats [6]; fentanyl 35 μg/kg + mecamylamine 6 mg/kg, SIB 1553A 40 mg/kg): had no effects | fentanyl-induced decrease in tidal volume (VT) (newborn rats [6]; fentanyl 35 μg/kg, SIB 1553A 40 mg/kg sc): without marked effects | fentanyl-induced decrease in respiratory rate (fR) (newborn rats [6]; fentanyl 35 μg/kg, SIB 1553A 40 mg/kg sc 7 min later): partially reversed

C(#Cc1cncc(OC[C@@H]2CCN2)c1)c1ccccc1 [VMY-2-95, 3-[(2S)-2-Azetidinylmethoxy]-5-(2-phenylethynyl)-pyridine]
significant alteration of baseline VE (rat pups): Neither | penetration of the blood-brain barrier [7]: better penetration of the blood-brain barrier

CNCC/C=C/c1cccnc1 [Rivanicline, (E)-N-Methyl-4-(3-pyridinyl)-3-butene-1-amine]
baseline minute ventilation (adult rats [3]): 98.4±3.6 % of control | baseline respiratory amplitude [1]: without marked effects | baseline respiratory frequency [1]: increased baseline respiratory frequency | reversal of DAMGO-induced respiratory depression (frequency and amplitude) [1]: clear reversal

c1cncc(OC[C@@H]2CCN2)c1 [A85380, 3-(2(s)-azetidinylmethoxy) pyridine]
baseline minute ventilation (adult rats [3]): 97.8±3.1 % of control | baseline fR [1]: increased baseline fR | baseline respiratory amplitude [1]: without marked effects | baseline respiratory frequency [1]: increased baseline respiratory frequency | concentrations at which baseline fR is increased [1]: above 5 nM | ethanol and pentobarbital-induced respiratory depression [1]: alleviated | reversal of DAMGO-induced respiratory depression (decrease in fR and burst area) [1]: clear reversal | reversal of DAMGO-induced respiratory depression (frequency and amplitude) [1]: clear reversal | weak respiratory rhythm and XII motor output [1]: increased respiratory frequency, amplitude and bursting duration | DAMGO-induced suppression of fR [2]: alleviated | DAMGO-induced suppression of respiratory frequency and amplitude [2]: alleviated | baseline respiratory burst area [2]: decreased baseline respiratory burst area | baseline respiratory frequency [2]: increased respiratory frequency; also recorded: increased fR | loss of respiratory drive and motor output in low potassium [2]: potently reversed the loss of respiratory drive and motor output | respiratory amplitude [2]: decreased the respiratory amplitude | propofol-induced respiratory depression (newborn rats [8]; A85380 0.03 mg/kg ip co-administered with propofol 30 mg/kg ip): dramatically prevented | paw withdrawal latency to thermal stimuli, baseline (adult rats [9]): marked increase in paw withdrawal latency | nocifensive response 20-40 minutes post formalin, baseline (adult rats [5]; rat, in vivo, sc, 0.06 mg/kg): decreased nocifensive response | ipsilateral respiratory amplitude after C2 hemisection [10]: partially increased | respiratory frequency after C2 hemisection [10]: increased the respiratory frequency | significant alteration of baseline VE (rat pups): Neither

N#Cc1cccc(-c2nc(-c3cccnc3)no2)c1 [NS9283, 3-[3-(3-Pyridinyl)-1,2,4-oxadiazol-5yl]benzonitrile]
baseline minute ventilation (adult rats [3]): 103.3±4.2 % of control | baseline respiratory amplitude ([1]; C4 discharge, A85380 25 nM, Rivanicline 0.5 μM, NS9283 15 μM): without marked effects | baseline respiratory frequency ([1]; C4 discharge, bath A85380 25 nM, Rivanicline 0.5 μM, NS9283 15 μM, PNU282987 up to 20 μM (Example 3)): increased baseline respiratory frequency | reversal of DAMGO-induced respiratory depression (frequency and amplitude) ([1]; bath after DAMGO: A85380 25 nM, Rivanicline 0.5 μM, NS9283 15 μM, PNU282987 1-20 μM (Example 3)): clear reversal

CCN1C[C@]2(COC(=O)c3ccccc3N3C(=O)C[C@H](C)C3=O)CC[C@H](OC)[C@@]34[C@@H]5C[C@H]6[C@H](OC)[C@@H]5[C@](O)(C[C@@H]6OC)[C@](O)([C@@H](OC)[C@H]23)[C@@H]14 [MLA]
fR in the presence of the antagonist [1]: fR was slower

CC(C)c1cccc(C(C)C)c1O [propofol]
duration of propofol respiratory depression (newborn rats [8]; propofol 30 mg/kg ip): over 30 minutes | onset of propofol respiratory depression (newborn rats [8]; propofol 30 mg/kg ip): ≤ 5 min | respiratory depression by propofol (newborn rats [8]; propofol 30 mg/kg ip with saline): marked depression of respiratory frequency and amplitude
